The results in this text go back to patent publication US20210317111A1, “NOVEL MEDICAMENT FOR TREATING INFLAMMATORY BOWEL DISEASE” (OTSUKA PHARMACEUTICAL CO., LTD., priority 2018, published 2021).

In assay [1] the test system is TNF-α production. In words: inhibition of LPS-induced TNF-α production in human peripheral blood (ELISA). To be noted: human peripheral blood, 24 hours; for inhibitory activity for TNF-α production over concentration range: 1, 3, 10, 30, 100 μM. It is filed as cell-based. As for the experimental part:
The LPS solution which was adjusted to 2 μg/mL with RPMI 1640 medium was added to 48-well plate in the amount of 250 μL/well. The each diluted solution of each test compound and the diluted solution of the solvent control were added to 3 wells for each concentration in the amount of 50 μL/well, 4-fold diluted solution of human peripheral blood was added to each well (200 μL/well), and the wells were incubated at 37° C. in 5% CO2 for 24 hours. As LPS (−) control, RPMI 1640 medium without added LPS was prepared in the same manner. The final concentrations of each test sample were adjusted to 0, 1, 3, 10, 30, and 100 μM, and the final concentration of prednisolone was adjusted to 0.3 μM. 24 hours later from the incubation, each supernatant was collected and stored at −80° C. until the measurement of the TNF-α concentration.
The TNF-α concentration was measured by ELISA with Human TNF-alpha Quantikine ELISA Kit (R & D Systems). Each sample was unfrozen at room temperature, and diluted with Calibrator Diluent RD6-35 (1×) of the kit by 10-fold. The 10-fold diluted supernatant and the TNF-α standard solution were added on TNF-α microplate, and reacted according to the operating manual of the kit. After the coloring, the absorbance at wave length of 450 nm was measured with a microplate reader (Multiskan FC; Thermo Fisher […]), and the calibration curve was prepared with an analysis software (Skanit Software 3.1.0.4 RE for Multiskan FC (ja)) to read the TNF-α concentration of each sample. Calibration curve used a 4-parameter logistic curve.
The inhibition rates were presented as the mean±standard deviation using Microsoft Excel 2010. For each blood donor, the TNF-α production rate under each compound concentration was calculated with the TNF-α concentration in the supernatant of the solvent group as 100%.
The results are averages of the measurements obtained from the human peripheral blood of three volunteers.
In general terms: ELISA stands for enzyme-linked immunosorbent assay.

Assay [2] concerns Mycobacterium avium subspecies paratuberculosis (MAP). The assay is described as follows: antibacterial activity (MIC), broth microdilution method. The assay is classed as cell-based. The settings on record: 336 h. As to the method:
The chronic enterocolitis of ruminants which is caused by Mycobacterium avium subspecies paratuberculosis (MAP) is similar to Crohn's disease. […] Thus, the antibacterial activity of the present compound against MAP was evaluated. The used comparative drugs for the present compound were rifaximin (RFX), ciprofloxacin (CPFX), metronidazole (MTZ), clarithromycin (CAM), rifabutin (RBT), and clofazimine (CFZ).
The antibacterial activity (minimum inhibitory concentration (MIC)) was assayed by broth microdilution method which is based on Clinical and laboratory standards institute (CLSI).
The 5 strains of MAP were inoculated onto Middlebrook 7H9 agar containing 10% dubos oleic albumin complex (OADC), Tween 80 (0.5 g/L), mycobactin J (2 mg/L), and 1.5% agar, and pre-cultured at 37° C. under an aerobic condition for 14 days. After the pre-culture, the bacterial cell was scraped out from the agar, and prepared to the turbidity of 0.5 Mcfarland standard using Middlebrook 7H9 broth containing 10% dubos oleic albumin complex (OADC), Tween 80 (0.5 g/L), and mycobactin J (2 mg/L)]. The 10-fold diluted solution of the bacterial suspension was inoculated onto Middlebrook 7H9 broth 96-well plate which contains the present compound or any one of the comparative drugs, and incubated at 37° C. under an aerobic condition for 14 days.
After the incubation, the bacterial growth in each well of the 96-well plate was visually checked. The minimum concentration at which the bacterial growth was not observed, compared with the result of the well containing neither present compound nor comparative drug was determined as MIC of the present compound or each comparative drug against each test bacterium.
(Broth dilution looks for growth in wells or tubes with falling amounts of substance.)

Assay [3] has as its system naive T cell transfer model of colitis. In words: naive T cell transfer model of colitis (Crohn's disease mouse model), histological scoring of large intestine. The assay is classed as in vivo. The settings on record: from 2nd week after transplantation for 2 weeks; present compound, CPFX, RFX oral once a day 10 mg/kg; antibody 25 mg/kg i.p. twice a week; 4th week. The text has this:
From spleen of Balb/c mouse, naive T cell (CD4+CD62L+CD44−) was isolated with antibody-coated magnetic beads. The isolated naive T cell (5×10^5 cells/mouse) was transplanted in abdominal cavity of SCID mouse which is a severe combined immunodeficiency animal. The present compound was orally administered to the mouse once a day at each dose defined in Table 1 below, from the first day of the transplantation for Test 1, or from the 2nd week after the transplantation for Test 2, until 5 weeks after the transplantation. [table] […] The anti-TNF-α antibody was intraperitoneally administered to the mouse twice a week at each dose defined in Table 2 below, from the 2nd week after the transplantation, for 2 weeks. [table] At 5th week for Tests 1 and 2, and at 4th week for Test 3, the large intestine was removed, and the length and weight of the large intestine were measured. In addition, the large intestine was fixed with formalin to carry out pathological analysis. From the removed large intestine, the anus part, the center part, and the cecal part were cut out each in about 0.5 cm, and each part was fixed with formalin. The paraffin block thereof was prepared, sliced, and subjected to H&E staining. The H&E stained slice was examined with a microscope to score it histologically. The histological scoring was carried out by scoring the inflammatory cell infiltrate, the Goblet cell loss, and the hyperplasia of mucosal epithelium, based on the standard (0-4) defined in Table 3 below. [table]

In assay [4] the test system is Fusobacterium spp. The assay is described as follows: antibacterial activity (MIC), agar plate dilution method. The settings on record: 17 strains of Fusobacterium spp.; anaerobic, 37° C. It is filed as cell-based. As to the method:
There are plural reports about the relationship between intestinal bacteria and inflammatory bowel disease, and it is thought that Fusobacterium spp., one of the intestinal bacteria is a pathogenic bacteria causing inflammatory bowel disease. […] The antibacterial activity (minimum inhibitory concentration (MIC)) was assayed by agar plate dilution method which is based on Clinical and laboratory standards institute (CLSI). The medium used herein was Brucella medium with sheep blood. […] The bacterial suspension was inoculated onto Brucella agar with sheep blood which contains the present compound or any one of the comparative drugs, and incubated at 37° C. under an anaerobic condition.

In assay [5] the test system is TNBS-induced enteritis. The assay is described as follows: TNBS-induced enteritis model. It is filed as in vivo, rat. The settings on record: 100 mg/kg orally twice a day; 12 rats per group. As to the method: An enteritis animal model induced with 2,4,6-trinitrobenzenesulfonic acid (TNBS) is widely used as Crohn's disease model since the inflammatory finding is pathologically similar to that of human Crohn's disease. In addition, the enteritis model was used in the non-clinical study of mesalazine that is a medicament for treating Crohn's disease. Thus, this enteritis model was used as Crohn's disease model for evaluating the present compound.
Rats were made to be fasted for 24 or 48 hours, and the body weight were measured. The rats were laparotomized under isoflurane anesthesia, and 50% ethanol (0.25 mL) containing 60 mg/mL 2,4,6-trinitrobenzenesulfonic acid (TNBS) was injected into the large intestine from the cecum side toward the anal side to induce the injury. Each group composed of 12 rats was set, and vehicle, the present compound, or salazosulfapyridine (SASP) which is an already-existing drug for treating inflammatory bowel disease were administered for 7 days from the first day after the injection of TNBS. On the 8th day, each rat was laparotomized under anesthesia and killed by exsanguination. The large intestine was removed from the anus to the cecum, the large intestine was longitudinally incised, and the incised large intestine was washed with a cold saline. The lesion area of the large intestine was photographed with a digital camera. The area of the lesion area in the photograph of the large intestine was measured using image analyzing program.
Each compound was orally administered at a dose of 100 mg/kg twice a day from one day after inducing enteritis with TNBS. Each area of the lesion area on the 8th day was compared.

The subject of assay [6] is DSS-induced colitis. In words: DSS-induced colitis model, stool scores. The assay is classed as in vivo, rat. The text has this: A colitis model induced by dextran sulfate sodium (DSS) is widely used as an experimental ulcerative colitis model having similarities of human ulcerative colitis regarding suppression of weight gain, colitis symptoms such as bloody stools and diarrhea, and injury formation in the large intestine. The effect of the present compound on the ulcerative colitis model was examined, and it was compared with salazosulfapyridine (SASP) clinically used as a therapeutic agent for ulcerative colitis.
Symptoms of colitis were induced by allowing rats to freely drink 3% dextran sulfate sodium (DSS) solution for 10 days. […] For the observation of stool symptoms, the degree of stool condition was scored as the score of stool firmness (Stool Consistency Score: 0, 1, 2, 3) and blood stool (Bloody Stool Score: 0, 1, 2, 3). The total of Stool Consistency Score and Bloody Stool Score was taken as the Total Stool Score. Each group was composed of 8 animals. Salazosulfapyridine (SASP), which is an already-existing drug for treating inflammatory bowel disease, the present compound or the vehicle were administrated for 10 days from the start date of 3% DSS freely drinking.

[7] abbreviates: 11th day, present compound 1, 3, 10 mg/kg (P<0.01) or SASP 100 mg/kg (P<0.05) orally twice a day, Dunnett's test.

Converted amounts (≈) assume the structure as drawn.

`Nc1ccc(O)c(C(=O)O)c1` [5-ASA, 5-aminosalicylic acid]: the “inhibitory activity for TNF-α production over concentration range” value in assay [1] is “no inhibitory activity”.

By MIC is commonly meant the lowest concentration that inhibits growth of the organism. Regarding `CC[C@H]1OC(=O)[C@H](C)[C@@H](O[C@H]2C[C@@](C)(OC)[C@@H](O)[C@H](C)O2)[C@H](C)[C@@H](O[C@@H]2O[C@H](C)C[C@H](N(C)C)[C@H]2O)[C@](C)(OC)C[C@@H](C)C(=O)[C@H](C)[C@@H](O)[C@]1(C)O` [CAM, clarithromycin], the MIC in assay [2] is 0.12 to 0.25 µg/mL (≈ 0.16 to 0.334 µM).

In turn, `CC(C)/N=c1\cc2n(-c3ccc(Cl)cc3)c3ccccc3nc-2cc1Nc1ccc(Cl)cc1` [CFZ, clofazimine] yielded an MIC in assay [2] of 0.12 to 0.5 µg/mL (≈ 0.253 to 1.06 µM).

As to `O=C(O)c1cn(C2CC2)c2cc(N3CCNCC3)c(F)cc2c1=O` [CPFX, ciprofloxacin], the MIC fell in the range of 0.25 to 0.5 µg/mL (≈ 0.754 to 1.51 µM) in assay [2] and 2 to 8 µg/mL (≈ 6.04 to 24.1 µM) in assay [4]. The inhibition at 100 µM in assay [1] (100 μM, read-out: inhibitory effect on TNF-α production at 100 μM) is less than 50%. Besides, the “inhibitory activity for TNF-α production over concentration range” value in assay [1] is “dose-dependent inhibitory effect at a concentration of 30 μM or more”. For the same compound, the “histological score (Test 3, comparative study)” value in assay [3] is recorded as “little or no inhibitory effect”.

As to `Cc1ncc([N+](=O)[O-])n1CCO` [MTZ, metronidazole], the MIC was more than 128 µg/mL in assay [2] and 0.03 to 0.5 µg/mL (≈ 0.175 to 2.92 µM) in assay [4].

`CO[C@H]1/C=C/O[C@@]2(C)Oc3c(C)c(O)c4c(c3C2=O)C2=NC3(CCN(CC(C)C)CC3)NC2=C(NC(=O)/C(C)=C\C=C\[C@H](C)[C@H](O)[C@@H](C)[C@@H](O)[C@@H](C)[C@H](OC(C)=O)[C@@H]1C)C4=O` [RBT, rifabutin] yielded an MIC in assay [2] of 0.25 to 1 µg/mL (≈ 0.295 to 1.18 µM).

Compound `CO[C@H]1/C=C/O[C@@]2(C)Oc3c(C)c(O)c4c(O)c(c5c(nc6cc(C)ccn65)c4c3C2=O)NC(=O)/C(C)=C\C=C\[C@H](C)[C@H](O)[C@@H](C)[C@@H](O)[C@@H](C)[C@H](OC(C)=O)[C@@H]1C` [RFX, rifaximin] gave an MIC in assay [2] of 1 to 2 µg/mL (≈ 1.27 to 2.54 µM). The “inhibitory activity for TNF-α production over concentration range” value in assay [1] was “no inhibitory activity”. Also, the “histological score (Test 3, comparative study)” value in assay [3] is recorded as “little or no inhibitory effect”.

Take `O=C(O)c1cc(/N=N/c2ccc(S(=O)(=O)Nc3ccccn3)cc2)ccc1O` [SASP, salazosulfapyridine, reference compound]: in assay [5], the “number of death during the treatment” value is “two”. Also, the “day from which suppression of stool score deterioration was observed” value in assay [6] (100 mg/kg orally twice a day) is recorded as “from the 9th day”. In addition, the deaths in assay [6] (100 mg/kg orally twice a day, 8 animals per group) was found to be 2. In assay [6] (11th day, present compound 1 mg/kg (P<0.05), 3, 10 mg/kg (P<0.01) or SASP 100 mg/kg orally twice a day, Dunnett's test), the “bloody stool score vs vehicle control” value was “not significant”. Further, in assay [6] (setting [7]), the “stool firmness (Stool Consistency Score) vs vehicle control” value is recorded as “significant differences” and the “total stool score vs vehicle control” value is recorded as “significant differences”.
